Values quoted from earlier work in PMC6959220, “Glycofullerenes as non-receptor tyrosine kinase inhibitors- towards better nanotherapeutics for pancreatic cancer treatment” (Scientific Reports, 2020).

Tested on: NHDF
Design: method as in PMID 30562697

## Cc1nc(Nc2ncc(C(=O)Nc3c(C)cccc3Cl)s2)cc(N2CCN(CCO)CC2)n1 [Dasatinib, dasatinib]
  cytotoxic effects on a normal cell line: cytotoxic effects
